Data on 15 compounds can be found in ChEMBL document CHEMBL6153055, “Design, Synthesis, and Pharmacological Evaluation of Nonsteroidal Tricyclic Ligands as Modulators of GABAA Receptors” (J Med Chem, 2025).

Each structure is given as a SMILES string. The source made the active and inactive calls. No cut-off for these calls is given here.

In data set [1] the target is T1, Gamma-aminobutyric acid receptor subunit alpha-1/beta-3/gamma-2 (Mus musculus, UniProt P22723+P62812+P63080). Description: Negative allosteric modulation of recombinant mouse alpha1beta3gamma2 GABAA receptor expressed in GFP tagged HEK293 cells at steady state current by whole-cell voltage clamp electrophysiological analysis. In kind it is cell-based.
Data set [2] concerns the target T2, Gamma-aminobutyric acid receptor subunit alpha-1/beta-3/gamma-2 (Mus musculus) (UniProt P22723+P62812+P63080). Kind of data set: Negative allosteric modulation of recombinant mouse alpha1beta3gamma2 GABAA receptor expressed in GFP tagged HEK293 cells at 100 uM by whole-cell voltage clamp electrophysiological analysis. The format is cell-based. The settings on record: filed as negative allosteric modulator.

For data set [3], the target named is T1, Gamma-aminobutyric acid receptor subunit alpha-1/beta-3/gamma-2. Kind of data set: Negative allosteric modulation of recombinant mouse alpha1beta3gamma2 GABAA receptor expressed in GFP tagged HEK293 cells at peak current by whole-cell voltage clamp electrophysiological analysis. The format is cell-based.
Data set [4] has as its target T2, Gamma-aminobutyric acid receptor subunit alpha-1/beta-3/gamma-2 (Mus musculus). Description: Positive allosteric modulation of recombinant mouse alpha1beta3gamma2 GABAA receptor expressed in GFP tagged HEK293 cells assessed as maximum GABA current at 100 uM by whole-cell voltage clamp electrophysiological analysis. The settings on record: filed as positive allosteric modulator. The format is cell-based.

A short description of data set [5]: Solubility of the compound at 100 uM. The format is physicochemical.
The target of data set [6] is T2, Gamma-aminobutyric acid receptor subunit alpha-1/beta-3/gamma-2 (Mus musculus). Description: Negative allosteric modulation of recombinant mouse alpha1beta3gamma2 GABAA receptor expressed in GFP tagged HEK293 cells at 100 uM by whole-cell voltage clamp electrophysiological analysis relative control. The format is cell-based. The settings on record: filed as negative allosteric modulator.

Data set [7] has as its system HEK293. Kind of data set: Positive allosteric modulation of recombinant mouse alpha1 Q241L mutant/beta3/gamma2 GABAA receptor expressed in GFP tagged HEK293 cells by whole-cell voltage clamp electrophysiological analysis. The format is cell-based.
Data set [8] deals with HEK293. Description: Negative allosteric modulation of recombinant mouse alpha1 Q241L mutant/beta3/gamma2 GABAA receptor expressed in GFP tagged HEK293 cells assessed as inhibition of steady-state level at 100 uM by whole-cell voltage clamp electrophysiological analysis. The format is cell-based.
The test system of data set [9] is HEK293. Kind of data set: Positive allosteric modulation of recombinant mouse alpha1 Q241L mutant/beta3/gamma2 GABAA receptor expressed in GFP tagged HEK293 cells at 100 uM by whole-cell voltage clamp electrophysiological analysis. The format is cell-based.
The target in data set [10] is T2, Gamma-aminobutyric acid receptor subunit alpha-1/beta-3/gamma-2 (Mus musculus). Kind of data set: Positive allosteric modulation of recombinant wild type mouse alpha1beta3gamma2 GABAA receptor expressed in GFP tagged HEK293 cells at 100 uM by whole-cell voltage clamp electrophysiological analysis. In kind it is cell-based.
Data set [11] deals with HEK293. Kind of data set: Negative allosteric modulation of recombinant mouse alpha1 Q241L mutant/beta3/gamma2 GABAA receptor expressed in GFP tagged HEK293 cells assessed as inhibition of peak current at 100 uM by whole-cell voltage clamp electrophysiological analysis. In kind it is cell-based.
For data set [12], the target named is T3, GABA-A receptor; anion channel (Rattus norvegicus) (UniProt O09028+P15431+P18506+P18508+P19969+P20236+P23574+P23576+P28471+P28473+P30191+P62813+P63079+P63138+Q91ZM7+Q9ES14). Kind of data set: Positive allosteric modulation of GABAA receptor in Sprague-Dawley rat Hippocampal neuron assessed as reduction in spontaneous IPSC amplitude at 10 uM by whole-cell voltage-clamp electrophysiological analysis. The settings on record: filed as positive allosteric modulator. In kind it is cell-based.

Data set [13] deals with T3, GABA-A receptor; anion channel (Rattus norvegicus). Kind of data set: Positive allosteric modulation of GABAA receptor in Sprague-Dawley rat Hippocampal neuron assessed as potentiation of tonic holding current at 30 uM by whole-cell voltage-clamp electrophysiological analysis. The format is cell-based. The settings on record: filed as positive allosteric modulator.
The target is the same in data set [14]. Description: Positive allosteric modulation of GABAA receptor in Sprague-Dawley rat Hippocampal neuron assessed as decrease in spontaneous IPSC frequency at 10 uM by whole-cell voltage-clamp electrophysiological analysis. The settings on record: filed as positive allosteric modulator. In kind it is cell-based.
For data set [15] the target is unchanged. Description: Positive allosteric modulation of GABAA receptor in Sprague-Dawley rat Hippocampal neuron assessed as prolongation of spontaneous IPSC decay time at 10 uM by whole-cell voltage-clamp electrophysiological analysis. In kind it is cell-based. The settings on record: filed as positive allosteric modulator.
Data set [16] has as its target T2, Gamma-aminobutyric acid receptor subunit alpha-1/beta-3/gamma-2 (Mus musculus). Kind of data set: Positive allosteric modulation of recombinant mouse alpha1beta3gamma2 GABAA receptor expressed in GFP tagged HEK293 cells assessed as maximum GABA current by measuring maximum activation at 100 uM by whole-cell voltage clamp electrophysiological analysis relative to control. The format is cell-based. The settings on record: filed as positive allosteric modulator.

T1 sequence (P22723 whole entry): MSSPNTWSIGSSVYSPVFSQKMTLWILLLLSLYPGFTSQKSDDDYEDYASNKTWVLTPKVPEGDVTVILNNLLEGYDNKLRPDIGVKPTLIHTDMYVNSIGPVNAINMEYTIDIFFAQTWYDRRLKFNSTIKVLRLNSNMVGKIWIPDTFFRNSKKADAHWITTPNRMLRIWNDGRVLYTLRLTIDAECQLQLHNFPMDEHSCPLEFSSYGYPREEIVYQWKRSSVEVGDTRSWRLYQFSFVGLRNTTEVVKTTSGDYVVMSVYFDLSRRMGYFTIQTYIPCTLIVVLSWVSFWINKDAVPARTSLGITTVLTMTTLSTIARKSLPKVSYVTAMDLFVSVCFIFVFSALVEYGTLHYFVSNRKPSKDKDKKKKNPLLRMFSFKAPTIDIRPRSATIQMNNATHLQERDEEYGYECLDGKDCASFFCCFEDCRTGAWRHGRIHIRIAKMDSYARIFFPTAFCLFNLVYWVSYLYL
T1 sequence (P62812 whole entry): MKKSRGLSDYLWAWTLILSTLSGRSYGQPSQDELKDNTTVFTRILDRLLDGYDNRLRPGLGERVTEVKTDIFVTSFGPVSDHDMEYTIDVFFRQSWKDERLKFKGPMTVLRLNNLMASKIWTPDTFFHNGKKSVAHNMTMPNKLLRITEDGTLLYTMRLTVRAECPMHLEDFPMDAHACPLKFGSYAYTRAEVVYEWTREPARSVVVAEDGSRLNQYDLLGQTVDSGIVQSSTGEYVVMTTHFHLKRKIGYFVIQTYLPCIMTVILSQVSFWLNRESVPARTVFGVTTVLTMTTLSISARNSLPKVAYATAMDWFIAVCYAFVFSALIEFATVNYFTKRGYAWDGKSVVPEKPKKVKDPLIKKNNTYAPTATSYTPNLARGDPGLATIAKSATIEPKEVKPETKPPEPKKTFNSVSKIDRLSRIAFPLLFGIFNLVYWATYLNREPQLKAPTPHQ
T1 sequence (P63080 whole entry): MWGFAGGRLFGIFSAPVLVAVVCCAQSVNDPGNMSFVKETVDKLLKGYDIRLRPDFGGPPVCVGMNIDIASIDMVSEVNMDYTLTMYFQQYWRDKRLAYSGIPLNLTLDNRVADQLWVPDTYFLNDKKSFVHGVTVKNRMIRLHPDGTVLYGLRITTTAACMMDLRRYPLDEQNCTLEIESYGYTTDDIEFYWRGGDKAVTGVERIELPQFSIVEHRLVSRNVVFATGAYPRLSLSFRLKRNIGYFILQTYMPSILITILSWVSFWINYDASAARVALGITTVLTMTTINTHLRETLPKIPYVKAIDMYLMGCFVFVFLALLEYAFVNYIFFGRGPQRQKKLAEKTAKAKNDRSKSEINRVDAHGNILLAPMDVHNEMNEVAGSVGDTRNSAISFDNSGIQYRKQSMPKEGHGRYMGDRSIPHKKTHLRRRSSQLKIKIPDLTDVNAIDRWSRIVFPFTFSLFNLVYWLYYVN

Consider `C[C@]12CC[C@@H](c3ccccc3)C[C@H]1CC[C@@H]2O` (relative stereo), for which the IC50 in data set [1] is 21 µM; in data set [3], 27 µM. Also, the outcome in [2] and in data set [4] was Active. For the same compound, the solubility entry in data set [5] was “soluble”. Besides, the Activity in [6] stood at 100%.
Take `CC(=O)c1cccc(C2=C[C@H]3CC[C@H](O)[C@@]3(C)CC2)c1`: the result with HEK293 [7] was inactive.
For `C[C@]12CC[C@H](OS(=O)(=O)O)CC1=CCc1cc(Br)ccc12`, the IC50 in data set [1] and in [3] was 10 µM throughout. Moreover, the result in data set [2] and in [4] was Active. Also, the solubility result in data set [5] is “soluble”. The Activity in data set [6] worked out at 100%.
Consider `C[C@@]12CCC(CCO)C[C@H]1CCc1ccccc12` (mixture of isomers), for which the IC50 in data set [1] turned out to be 14 µM; in data set [3], 29 µM. In addition, the outcome (in data set [2]; in the data set with HEK293 [11] (filed as negative allosteric modulator)) was Active. The solubility entry in data set [5] was “soluble”. Further, the outcome (with HEK293 [8]; in the data set on HEK293 [9]; in data set [10]) was inactive. Besides, the Activity in data set [6] is 100%.
As for `C[C@]12CC[C@@H](c3ccccc3)C[C@H]1CC[C@@H]2OS(=O)(=O)O` (mixture of isomers), the 50% inhibitory concentration (IC50) in data set [1] is 42 µM; in data set [3] it was 76 µM. Also, the outcome in data set [2] and in [4] was Active. In addition, the solubility result in data set [5] was “soluble”.
As for `O=S(=O)(O)O[C@H]1CC[C@H](c2ccc3c(c2)CCC3)CC1`, the IC50 in [1] came to 73 µM; in [3] it was 148 µM. In data set [2], the result was Active. The solubility entry in data set [5] was “soluble”.
Consider `O=S(=O)(O)O[C@H]1CC[C@@H](c2ccc3c(c2)CCC3)CC1`, for which the concentration for half-maximal inhibition (IC50) in [1] was determined as 53 µM; in data set [3], 190 µM. Moreover, the outcome in data set [2] and in [4] was Active. In data set [5], the solubility entry is listed as “soluble”.
Turning to `CC(=O)c1cccc(C2=CC[C@@]3(C)[C@H](CC[C@@H]3O)C2)c1`, the outcome in data set [12], in data set [13], in data set [14] and in data set [15] was Active. Moreover, the result in the data set on HEK293 [7] was inactive.
In the case of `C[C@]12CC[C@H](c3ccccc3)C[C@H]1CC[C@@H]2O` (mixture of isomers), the IC50 in data set [1] was 20 µM; in data set [3], 37 µM. Also, the maximal response (Emax) in data set [16] amounted to 43%. For the same compound, the result in data set [2] and in data set [4] was Active. Besides, the solubility result in data set [5] was “soluble”. Further, the Activity in data set [6] is 100%.
With `O[C@H]1CC[C@@H](c2ccc3c(c2)CCC3)CC1`, the IC50 in data set [1] was found to be 18 µM; in data set [3], 55 µM. In addition, the outcome in data set [2] and in data set [4] was Active. Besides, the solubility entry in data set [5] is recorded as “soluble”.
In the case of `C[C@@]12CCC(CCOS(=O)(=O)O)C[C@H]1CCc1ccccc12` (mixture of isomers), the 50% inhibitory concentration (IC50) stood at 12 µM in [1] and 15 µM in data set [3]. In [2], the result was Active. Further, the solubility result in data set [5] is listed as “soluble”. In addition, the result (in the data set on HEK293 [8]; in the data set on HEK293 [9]; in data set [10]; in the data set with HEK293 [11]) was inactive. In addition, the Activity in data set [6] was determined as 100%.
Consider `C[C@]12CC[C@H](c3ccccc3)C[C@H]1CC[C@@H]2OS(=O)(=O)O` (mixture of isomers), for which the 50% inhibitory concentration (IC50) in data set [1] was 54 µM; in data set [3], 128 µM. Besides, the result in data set [2] was Active. In addition, in data set [5], the solubility entry was “soluble”.
Consider `CC(=O)[C@H]1CC[C@H]2[C@@H]3CC=C4C[C@@H](OS(=O)(=O)O)CC[C@]4(C)[C@H]3CC[C@]12C`, for which the figures for the IC50 in [1] and in data set [3] were 3.2 µM and 292 µM, respectively.
As for `C[C@@]12CC/C(=C/CO)C[C@H]1CCc1ccccc12`, the IC50 in data set [1] stood at 23 µM; in data set [3], 114 µM. The outcome in data set [2] was Active. Moreover, the solubility entry in data set [5] was “soluble”.
Consider `O[C@H]1CC[C@H](c2ccc3c(c2)CCC3)CC1`, for which the results for the IC50 in data set [1] and in data set [3] were 14 µM and 59 µM, respectively. Further, the result in [2] and in data set [4] was Active. The solubility entry in data set [5] is recorded as “soluble”.

What is called IC50 is the concentration that gives 50% inhibition. The Emax is the greatest response seen or fitted, relative to the assay's reference.
